Assay results taken from EP2951180B1, “2,6,7,8 SUBSTITUTED PURINES AS HDM2 INHIBITORS” (Merck Sharp & Dohme Corp., priority 2013, dated 2014).
Like-named read-outs stand apart in the source and are kept apart here.

Target: T1, HDM2 (Homo sapiens, UniProt Q00987)
T1 construct: Thioredoxin (N); made in house; host or cells: E. coli strain BL21(DE3)Rosetta
Assay: HDM2 FRET assay (inhibition of binding of FITC labeled p53-pocket peptide to HDM2)
Details: read-out: FRET IC50
In short: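 Compounds were tested in 10-point serial dilution against 0.5 nM recombinant HDM2 binding 3 nM fluorescein-labeled p53-pocket peptide. Detection used 0.25 nM terbium cryptate anti-6xHis antibody in PBS buffer containing 0.01% BSA and 0.01% Tween-20.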

T1 sequence (Q00987 17-125): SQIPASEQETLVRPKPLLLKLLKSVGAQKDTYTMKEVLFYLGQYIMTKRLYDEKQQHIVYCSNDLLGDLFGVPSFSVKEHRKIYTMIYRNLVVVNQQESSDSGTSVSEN

For CC(C)CNC(=O)c1nc2nc(C(=O)O)nc(N[C@H](C)C3CCC3)c2n1Cc1ccc(C(F)(F)F)cc1 [Example 10.16, (R)-6-((1-Cyclobutylethyl)amino)-8-(isobutylcarbamoyl)-7-(4-(trifluoromethyl)benzyl)-7H-purine-2-carboxylic acid], which IC50 (Table 10) is on record?
The IC50 was 37 nM.

C[C@@H](Nc1nc(C(=O)O)nc2nc(C(=O)NCC3CC3)n(Cc3ccc(C(F)(F)F)cc3)c12)C1CCC1 [Example 10.17, (R)-6-((1-Cyclobutylethyl)amino)-8-((cyclopropylmethyl)carbamoyl)-7-(4-(trifluoromethyl)benzyl)-7H-purine-2-carboxylic acid] was tested. Which IC50 (Table 10) did it give?
Its IC50 is 67.7 nM.

With C[C@@H](Nc1nc(C(=O)O)nc2nc(C(=O)NCc3ccccc3)n(Cc3ccc(C(F)(F)F)cc3)c12)C1CCC1 [Example 10.18, (R)-8-(Benzylcarbamoyl)-6-((1-cyclobutylethyl)amino)-7-(4-(trifluoromethyl)benzyl)-7H-purine-2-carboxylic acid] as the compound, how does the IC50 (Table 10) read?
Its IC50 is 58.9 nM.

For C[C@@H](Nc1nc(C(=O)O)nc2nc(C(=O)NC3CCCCC3)n(Cc3ccc(C(F)(F)F)cc3)c12)C1CCC1 [Example 10.19, (R)-6-((1-Cyclobutylethyl)amino)-8-(cyclohexylcarbamoyl)-7-(4-(trifluoromethyl)benzyl)-7H-purine-2-carboxylic acid], which IC50 (Table 10) is on record?
Its IC50 is 68 nM.

C[C@@H](Nc1nc(C(=O)O)nc2nc(C(=O)Nc3ccccc3)n(Cc3ccc(C(F)(F)F)cc3)c12)C1CCC1 [Example 10.20, (R)-6-((1-Cyclobutylethyl)amino)-8-(phenylcarbamoyl)-7-(4-(trifluoromethyl)benzyl)-7H-purine-2-carboxylic acid] was tested. Which IC50 (Table 10) did it give?
The IC50 was 189 nM.

With C[C@@H](Nc1nc(C(=O)O)nc2nc(C(=O)N3CCCC(C)(C)C3)n(Cc3ccc(C(F)(F)F)cc3)c12)C1CCC1 [Example 10.21, (R)-6-((1-Cyclobutylethyl)amino)-8-(3,3-dimethylpiperidine-1-carbonyl)-7-(4-(trifluoromethyl)benzyl)-7H-purine-2-carboxylic acid] as the compound, how does the IC50 (Table 10) read?
Its IC50 is 22.3 nM.

Which IC50 (Table 10) does the source give for C[C@@H](Nc1nc(C(=O)O)nc2nc(C3=N[C@H](c4ccccc4)CO3)n(Cc3ccc(C(F)(F)F)cc3)c12)C1CCC1 [Example 10.22, 6-(((R)-1-Cyclobutylethyl)amino)-8-((R)-4-phenyl-4,5-dihydrooxazol-2-yl)-7-(4-(trifluoromethyl)benzyl)-7H-purine-2-carboxylic acid] here?
Its IC50 is 28.4 nM.

With C[C@@H](Nc1nc(C(=O)O)nc2nc(C3CCCCN3C)n(Cc3ccc(C(F)(F)F)cc3)c12)C1CCC1 (stereo partly drawn) [Example 10.23, 6-(((R)-1-Cyclobutylethyl)amino)-8-(1-methylpiperidin-2-yl)-7-(4-(trifluoromethyl)benzyl)-7H-purine-2-carboxylic acid] as the compound, how does the IC50 (Table 10) read?
The IC50 was 48 nM.

How did the IC50 (Table 10) turn out when C[C@@H](Nc1nc(C(=O)O)nc2nc(C3CCCCN3)n(Cc3ccc(C(F)(F)F)cc3)c12)C1CCC1 (stereo partly drawn) [Example 10.24, 6-(((R)-1-Cyclobutylethyl)amino)-8-(piperidin-2-yl)-7-(4-(trifluoromethyl)benzyl)-7H-purine-2-carboxylic acid] was run?
The IC50 was 96.3 nM.

CCN1CCCCC1c1nc2nc(C(=O)O)nc(N[C@H](C)C3CCC3)c2n1Cc1ccc(C(F)(F)F)cc1 (stereo partly drawn) [Example 10.25, 6-(((R)-1-Cyclobutylethyl)amino)-8-(1-ethylpiperidin-2-yl)-7-(4-(trifluoromethyl)benzyl)-7H-purine-2-carboxylic acid] was tested. Which IC50 (Table 10) did it give?
The IC50 was 35.4 nM.

How did the IC50 (Table 10) turn out when CCCN(c1nc2nc(C(=O)O)nc(N[C@H](C)C3CCC3)c2n1Cc1ccc(C(F)(F)F)cc1)[C@@H](C)c1cccc(F)c1 [Example 10.26, 6-{[(1R)-1-cyclobutylethyl]amino}-8-{[(1S)-1-(3-fluorophenyl)ethyl](propyl)amino}-7-[4-(trifluoromethyl)benzyl]-7H-purine-2-carboxylic acid] was run?
The IC50 was 1.94 nM.

How did the IC50 (Table 10) turn out when C=CCN(c1nc2nc(C(=O)O)nc(N[C@H](C)C3CCC3)c2n1Cc1ccc(C(F)(F)F)cc1)[C@@H](C)c1cccc(F)c1 [Example 10.27, 8-(Allyl((S)-1-(3-fluorophenyl)ethyl)amino)-6-(((R)-1-cyclobutylethyl)amino)-7-(4-(trifluoromethyl)benzyl)-7H-purine-2-carboxylic acid] was run?
Its IC50 is 9.84 nM.

Which IC50 (Table 10) does the source give for C=CCN(c1nc(C(=O)O)nc2nc(N[C@@H](C)c3cccc(F)c3)n(Cc3ccc(C(F)(F)F)cc3)c12)[C@H](C)C1CCC1 [Example 10.28, 6-(Allyl((R)-1-cyclobutylethyl)amino)-8-(((S)-1-(3-fluorophenyl)ethyl)amino)-7-(4-(trifluoromethyl)benzyl)-7H-purine-2-carboxylic acid] here?
The IC50 was 22.2 nM.

Which IC50 (Table 10) does the source give for C[C@@H](Nc1nc(C(=O)O)nc2nc(N(CC3CC3)[C@@H](C)c3ccccc3)n(Cc3ccc(C(F)(F)F)cc3)c12)C1CCC1 [Example 10.29, 6-(((R)-1-Cyclobutylethyl)amino)-8-((cyclopropylmethyl)((S)-1-phenylethyl)amino)-7-(4-(trifluoromethyl)benzyl)-7H-purine-2-carboxylic acid] here?
Its IC50 is 35.3 nM.

How did the IC50 (Table 10) turn out when C=CCN(c1nc2nc(C(=O)O)nc(N[C@H](C)C3CCC3)c2n1Cc1ccc(C(F)(F)F)cc1)C(C)c1ccccn1 (stereo partly drawn) [Example 10.30, 8-(Allyl(1-(pyridin-2-yl)ethyl)amino)-6-(((R)-1-cyclobutylethyl)amino)-7-(4-(trifluoromethyl)benzyl)-7H-purine-2-carboxylic acid] was run?
The IC50 was 9.07 nM.

How did the IC50 (Table 10) turn out when C=CCN(c1nc(C(=O)O)nc2nc(NC(C)c3ccccn3)n(Cc3ccc(C(F)(F)F)cc3)c12)[C@H](C)C1CCC1 (stereo partly drawn) [Example 10.31, 6-(allyl((R)-1-cyclobutylethyl)amino)-8-((1-(pyridin-2-yl)ethyl)amino)-7-(4-(trifluoromethyl)benzyl)-7H-purine-2-carboxylic acid] was run?
The IC50 was 54.9 nM.

Which IC50 (Table 10) does the source give for CCCN(c1nc2nc(C(=O)O)nc(N[C@H](C)C3CCC3)c2n1Cc1ccc(C(F)(F)F)cc1)C(C)c1ccccn1 (stereo partly drawn) [Example 10.32, 6-(((R)-1-cyclobutylethyl)amino)-8-(propyl(1-(pyridin-2-yl)ethyl)amino)-7-(4-(trifluoromethyl)benzyl)-7H-purine-2-carboxylic acid] here?
Its IC50 is 3.72 nM.

Which IC50 (Table 10) does the source give for CC1CCN(C)C(c2nc3nc(C(=O)O)nc(N[C@H](C)C4CCC4)c3n2C[C@H]2CC[C@H](C)CC2)C1 (stereo partly drawn) [Example 10.33, 6-(((R)-1-Cyclobutylethyl)amino)-8-(1,4-dimethylpiperidin-2-yl)-7-((trans-4-methylcyclohexyl)methyl)-7H-purine-2-carboxylic acid] here?
The IC50 was 17.7 nM.

With CCN1CCC(C)CC1c1nc2nc(C(=O)O)nc(N[C@H](C)C3CCC3)c2n1C[C@H]1CC[C@H](C)CC1 (stereo partly drawn) [Example 10.34, 6-(((R)-1-Cyclobutylethyl)amino)-8-(1-ethyl-4-methylpiperidin-2-yl)-7-((trans-4-methylcyclohexyl)methyl)-7H-purine-2-carboxylic acid] as the compound, how does the IC50 (Table 10) read?
Its IC50 is 5.98 nM.

How did the IC50 (Table 11) turn out when CC1CCCN(c2nc3nc(C(=O)O)nc(N[C@H](C)C4CCC4)c3n2C[C@H]2CC[C@H](C)CC2)C1C (stereo partly drawn) [Example 11.1, 6-(((R)-1-cyclobutylethyl)amino)-8-(2,3-dimethylpiperidin-1-yl)-7-((trans-4-methylcyclohexyl)methyl)-7H-purine-2-carboxylic acid] was run?
The IC50 was 4.55 nM.

How did the IC50 (Table 11) turn out when CC(C)CC1CCCCN1c1nc2nc(C(=O)O)nc(N[C@H](C)C3CCC3)c2n1C[C@H]1CC[C@H](C)CC1 (stereo partly drawn) [Example 11.2, 6-(((R)-1-cyclobutylethyl)amino)-8-(2-isobutylpiperidin-1-yl)-7-((trans-4-methylcyclohexyl)methyl)-7H-purine-2-carboxylic acid] was run?
The IC50 was 1.82 nM.

How did the IC50 (Table 11) turn out when CC(C)CC1CCCCN1c1nc2nc(-c3noc(=O)[nH]3)nc(N[C@H](C)C3CCC3)c2n1C[C@H]1CC[C@H](C)CC1 (stereo partly drawn) [Example 11.3, 3-(6-(((R)-1-cyclobutylethyl)amino)-8-(2-isobutylpiperidin-1-yl)-7-((trans-4-methylcyclohexyl)methyl)-7H-purine-2-yl)-1,2,4-oxadiazol-5(4H)-one] was run?
The IC50 was 6.14 nM.

How did the IC50 (Table 11) turn out when C[C@@H](Nc1nc(C(=O)O)nc2nc(N3CCCCC3C3CCCCC3)n(C[C@H]3CC[C@H](C)CC3)c12)C1CCC1 (stereo partly drawn) [Example 11.4, 6-(((R)-1-cyclobutylethyl)amino)-8-(2-cyclohexylpiperidin-1-yl)-7-((trans-4-methylcyclohexyl)methyl)-7H-purine-2-carboxylic acid] was run?
The IC50 was 1.56 nM.

For C[C@@H](Nc1nc(-c2noc(=O)[nH]2)nc2nc(N3CCCCC3C3CCCCC3)n(C[C@H]3CC[C@H](C)CC3)c12)C1CCC1 (stereo partly drawn) [Example 11.5, 3-(6-(((R)-1-cyclobutylethyl)amino)-8-(2-cyclohexylpiperidin-1-yl)-7-((trans-4-methylcyclohexyl)methyl)-7H-purine-2-yl)-1,2,4-oxadiazol-5(4H)-one], which IC50 (Table 11) is on record?
Its IC50 is 450 nM.

With CC1CCCN(c2nc3nc(C(=O)O)nc(N[C@H](C)C4CCC4)c3n2C[C@H]2CC[C@H](C)CC2)C1c1ccccc1 (stereo partly drawn) [Example 11.6, 6-(((R)-1-cyclobutylethyl)amino)-8-(3-methyl-2-phenylpiperidin-1-yl)-7-((trans-4-methylcyclohexyl)methyl)-7H-purine-2-carboxylic acid] as the compound, how does the IC50 (Table 11) read?
The IC50 was 1.82 nM.

For CC1CCCN(c2nc3nc(-c4noc(=O)[nH]4)nc(N[C@H](C)C4CCC4)c3n2C[C@H]2CC[C@H](C)CC2)C1c1ccccc1 (stereo partly drawn) [Example 11.7, 3-(6-(((R)-1-cyclobutylethyl)amino)-8-(3-methyl-2-phenylpiperidin-1-yl)-7-((trans-4-methylcyclohexyl)methyl)-7H-purin-2-yl)-1,2,4-oxadiazol-5(4H)-one], which IC50 (Table 11) is on record?
Its IC50 is 6.34 nM.

C[C@@H](Nc1nc(-c2noc(=O)[nH]2)nc2nc(N3CCC[C@H]3CF)n(C[C@H]3CC[C@H](C)CC3)c12)C1CCC1 [Example 11.8, 3-(6-{[(1R)-1-cyclobutylethyl]amino}-8-[(2S)-2-(fluoromethyl)pyrrolidin-1-yl]-7-[(trans-4-methylcyclohexyl)methyl]-7H-purin-2-yl)-1,2,4-oxadiazol-5(4H)-one] was tested. Which IC50 (Table 11) did it give?
The IC50 was 2.36 nM.
